Experiment [1] has as its target T1, recombinant human hepatic type GK (GST-hGK2) (Homo sapiens, UniProt P35557).
T1 construct: made in house; host or cells: Escherichia coli BL21
T1 sequence (P35557 1-466 isoform P35557-2): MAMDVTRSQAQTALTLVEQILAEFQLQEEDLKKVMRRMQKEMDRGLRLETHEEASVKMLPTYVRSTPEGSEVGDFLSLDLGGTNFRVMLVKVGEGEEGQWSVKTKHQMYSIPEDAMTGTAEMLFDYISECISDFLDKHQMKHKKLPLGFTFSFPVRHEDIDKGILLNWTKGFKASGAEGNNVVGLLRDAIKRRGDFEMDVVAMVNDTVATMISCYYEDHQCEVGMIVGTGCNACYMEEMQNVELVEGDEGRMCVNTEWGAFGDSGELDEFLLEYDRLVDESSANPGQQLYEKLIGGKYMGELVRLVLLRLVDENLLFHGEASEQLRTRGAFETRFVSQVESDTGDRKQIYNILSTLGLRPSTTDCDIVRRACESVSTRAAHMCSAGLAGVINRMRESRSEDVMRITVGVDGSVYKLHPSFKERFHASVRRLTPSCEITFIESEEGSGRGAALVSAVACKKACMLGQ
As to the kind of experiment: Measurement of glucokinase (GK) activation. In kind it is biochemical. Conditions: 10 min; test compound final concentration 10 μM; 5 mM glucose; 27° C.; increase of absorbance at 340 nm during first 10 minutes vs DMSO; read-out: GK activation (%). Here is the method:
The present test was carried out in accordance with the method described in Science 301: 370-373, 2003 and with partial modification thereof. Hereinafter, the summary is described.
First, the cloning of GK (GenBank No. AK122876) was carried out. 5′-[…]-3′(SEQ ID NO: 1) and 5′-[…]-3′(SEQ ID NO: 2) were used as primers, and pME18S-FL3-Glucokinase isoform 2 was used as a template to carry out PCR. The obtained reaction product was TA-cloned into a pGEM-T easy vector, digested with EcoRI and XhoI, and introduced to the pGEX-5X-1 vector digested in the same manner by ligation. By using this plasmid DNA (pGEX-human Glucokinase 2), a recombinant human hepatic type GK (GST-hGK2) fused with GST (Glutathione S-transferase) was expressed in Escherichia coli (BL21 strain) and purified by Glutathione Sepharose.
The reaction of GK was carried out at 27° C. on a 96-well plate. First, 1 μL of the test compound (final concentration 10 μM) that has been diluted with dimethylsulfoxide (DMSO) was added to 89 μL of an enzyme mixed liquid (all final concentration 25 mM HEPES pH 7.4, 25 mM KCl, 2 mM MgCl2, 1 mM ATP, 0.1% BSA, 1 mM DTT, 1 mM NADP (nicotinamide adenine dinucleotide phosphate), 2.5 U/ml glucose-6-phosphate dehydrogenase, GST-hGK2 adjusted to ΔODCont of about 0.05 to 0.10). Subsequently, 10 μL of a substrate solution (final concentration 5 mM glucose) was added to start the reaction. In order to quantify a final product NADPH, an absorbance at a wavelength of 340 nm was measured, and the GK activation (%) of the test compound was calculated from the increase of absorbance during the first 10 minutes (ΔOD) after initiation of the reaction. GK activation (%)=[(ΔODTest)−(ΔODCont)]/(ΔODCont)×100
ΔODTest: ΔOD at test compound

For a further experiment, the system named is ICR mouse. As to the kind of experiment: Oral glucose tolerance test in normal mouse. The class given is in vivo. The following applies: ICR mouse fasted overnight; 10 mg/kg oral, glucose loading after 30 minutes; AUC lowering rate of blood glucose up to 2 hours after glucose loading vs solvent control. Here is the method: (§1) The test compound was dissolved in a solvent (5% Cremophor, aqueous 5% DMSO solution), and to an ICR mouse after fasting overnight was orally administered 10 mg/kg of the test compound, and after 30 minutes, oral glucose loading was carried out. Immediately before the administration of the test compound, immediately before the glucose loading, and 0.25, 0.5, 1, and 2 hours after the glucose loading, blood was collected and blood glucose levels were measured. An AUC lowering rate (%) of the blood glucose levels from immediately before the glucose loading to 2 hours after the glucose loading with respect to that of the solvent control group was calculated.

The test system of experiment [2] is C57BL/6 mice after loading a high fat diet. As to the kind of experiment: Oral glucose tolerance test in mouse fed high fat diet. In kind it is in vivo. Conditions: high fat diet about 30 days, fasted overnight, 1 mg/kg oral, glucose loading after 30 minutes, AUC lowering rate of blood glucose up to 2 hours vs solvent control. Here is the method: The test compound was dissolved in a solvent (5% Cremophor, aqueous 5% DMSO solution), and to a C57BL/6 mice after loading a high fat diet for about 30 days and then fasting overnight was orally administered 1 mg/kg of the test compound, and after 30 minutes, oral glucose loading was carried out. Immediately before the administration of the test compound, immediately before the glucose loading, and 0.25, 0.5, 1, and 2 hours after the glucose loading, blood was collected and blood glucose levels were measured. An AUC lowering rate (%) of the blood glucose levels from immediately before the glucose loading to 2 hours after the glucose loading with respect to that of the solvent control was calculated.

In another experiment the test system is SD rat. As to the kind of experiment: Oral glucose tolerance test in normal rat. The class given is in vivo. Conditions: SD rat fasted overnight; 1 mg/kg oral, glucose loading after 30 minutes; AUC lowering rate of blood glucose up to 2 hours vs solvent control. Here is the method:
as §1, with “SD rat” for “ICR mouse”, “1” for “10”, “and” for “and 0.25,”, “control” for “control group”

Where a name gives a salt, the structure may show the parent alone.

On to `Cn1ccc(NC(=O)/C(=C/[C@H]2CCC(=O)C2)c2ccc(S(=O)(=O)C3CC3)c(C3CC3)c2)n1` [Example 4-1, (2E)-2-[3-cyclopropyl-4-(cyclopropylsulfonyl)phenyl]-N-(1-methyl-1H-pyrazol-3-yl)-3-[(1S)-3-oxocyclopentyl]acrylamide], for which the activation at 10 µM in experiment [1] stood at 355%. The compound also showed an inhibition in vivo at 10 mg/kg in the experiment with ICR mouse of 39%. The “Blood glucose lowering rate (%)” value in experiment [2] came to 32%; with SD rat it was 25%.

Turning to `Cc1ccc(NC(=O)[C@H](C[C@H]2CCC(=O)C2)c2ccc(S(=O)(=O)C3CC3)c(C3CC3)c2)nc1` [Example 9, (2R)-2-[3-cyclopropyl-4-(cyclopropylsulfonyl)phenyl]-N-(5-methylpyridin-2-yl)-3-[(1R)-3-oxocyclopentyl]propanamide monohydrochloride], the activation at 10 µM in experiment [1] was 333%. This compound gave an inhibition in vivo at 10 mg/kg in the experiment on ICR mouse of 52%.

As to `CC(C)(O)COc1cnc(NC(=O)[C@H](C[C@H]2CCC(=O)C2)c2ccc(S(=O)(=O)C3CC3)c(C3CC3)c2)cn1` [Example 10, (2R)-2-[3-cyclopropyl-4-(cyclopropylsulfonyl)phenyl]-N-[5-(2-hydroxy-2-methylpropoxy)pyrazin-2-yl]-3-[(1R)-3-oxocyclopentyl]propanamide], in experiment [1], the activation at 10 µM came out at 357%. Further, testing at 10 mg/kg in the experiment on ICR mouse gave an inhibition in vivo of 51%.

As for `O=C1CC[C@H](C[C@@H](C(=O)Nc2cnc(OCCO)cn2)c2ccc(S(=O)(=O)C3CC3)c(C3CC3)c2)C1` [Example 11, (2R)-2-[3-cyclopropyl-4-(cyclopropylsulfonyl)phenyl]-N-[5-(2-hydroxyethoxy)pyrazin-2-yl]-3-[(1R)-3-oxocyclopentyl]propanamide], in experiment [1], the activation at 10 µM stood at 433%. The compound further registered an inhibition in vivo at 10 mg/kg with ICR mouse of 50%. Moreover, the “Blood glucose lowering rate (%)” value in the experiment on SD rat is 20%.

Take `O=C1CC[C@H](C[C@@H](C(=O)Nc2cnc(CO)cn2)c2ccc(S(=O)(=O)C3CC3)c(C3CC3)c2)C1` [Example 15, (2R)-2-[3-cyclopropyl-4-(cyclopropylsulfonyl)phenyl]-N-[5-(hydroxymethyl)pyrazin-2-yl]-3-[(1R)-3-oxocyclopentyl]propanamide]: the activation at 10 µM in experiment [1] amounted to 284%. The inhibition in vivo at 10 mg/kg in the experiment with ICR mouse came out at 49%. In the experiment on SD rat, the “Blood glucose lowering rate (%)” value turned out to be 22%.

As to `Cn1ccc(NC(=O)/C(=C/[C@H]2CC[C@H](O)C2)c2ccc(S(=O)(=O)C3CC3)c(C3CC3)c2)n1` [Example 22-1, 2(E)-[3-cyclopropyl-4-(cyclopropylsulfonyl)phenyl]-3-[(1S,3S)-3-hydroxycyclopentyl]-N-(1-methyl-1H-pyrazol-3-yl)acrylamide], the activation at 10 µM in experiment [1] was determined as 197%. The compound also registered an inhibition in vivo at 10 mg/kg in the experiment with ICR mouse of 55%. The “Blood glucose lowering rate (%)” value in the experiment with SD rat was 27%.

Turning to `Cn1ccc(NC(=O)/C(=C/[C@H]2CC[C@@H](O)C2)c2ccc(S(=O)(=O)C3CC3)c(C3CC3)c2)n1` [Example 22-2, 2(E)-[3-cyclopropyl-4-(cyclopropylsulfonyl)phenyl]-3-[(1S,3R)-3-hydroxycyclopentyl]-N-(1-methyl-1H-pyrazol-3-yl)acrylamide], the activation at 10 µM in experiment [1] was found to be 199%. For the same compound, the inhibition in vivo at 10 mg/kg in the experiment on ICR mouse came to 52%. Further, the “Blood glucose lowering rate (%)” value in the experiment on SD rat is 25%.

With `Cc1cnc(NC(=O)/C(=C/[C@H]2CCC(=O)C2)c2ccc(S(=O)(=O)C3CC3)c(C3CC3)c2)cn1` [Example 36], in experiment [1], the activation at 10 µM was found to be 332%. For the same compound, in the experiment on ICR mouse, 10 mg/kg produced 45% inhibition in vivo. Further, the entries for the “Blood glucose lowering rate (%)” value (in experiment [2]; in the experiment with SD rat) were 43% and 40%, respectively.

Consider `CC(=O)c1csc(NC(=O)[C@H](C[C@H]2CCC(=O)C2)c2ccc(S(=O)(=O)C3CC3)c(C3CC3)c2)n1` [Example 51], for which the activation at 10 µM in experiment [1] was found to be 352%. The compound further returned an inhibition in vivo at 10 mg/kg in the experiment with ICR mouse of 55%.

Take `Cc1cnc(NC(=O)[C@H](C[C@H]2CCC(=O)C2)c2ccc(S(=O)(=O)C3CC3)c(C3CC3)c2)cn1` [Example 55]: in experiment [1], the activation at 10 µM was 315%. Besides, 10 mg/kg produced 56% inhibition in vivo in the experiment on ICR mouse.

As to `O=C1CC[C@H](C[C@@H](C(=O)Nc2cnc(Cl)cn2)c2ccc(S(=O)(=O)C3CC3)c(C3CC3)c2)C1` [Example 70], the activation at 10 µM in experiment [1] is 282%. In the experiment on ICR mouse, the inhibition in vivo at 10 mg/kg was determined as 60%.

As for `COc1cnc(NC(=O)[C@H](C[C@H]2CCC(=O)C2)c2ccc(S(=O)(=O)C3CC3)c(C3CC3)c2)cn1` [Example 72], in experiment [1], the activation at 10 µM was 311%. Also, the inhibition in vivo at 10 mg/kg in the experiment on ICR mouse came to 59%.

As to `Cc1cnc(NC(=O)[C@H](C[C@H]2CCC(O)C2)c2ccc(S(=O)(=O)C3CC3)c(C3CC3)c2)cn1` (stereo partly drawn) [Example 78], the activation at 10 µM in experiment [1] is 273%. In the experiment on ICR mouse, this compound had an inhibition in vivo at 10 mg/kg of 50%.

With `COc1cnc(NC(=O)[C@H](C[C@H]2CCC(O)C2)c2ccc(S(=O)(=O)C3CC3)c(C3CC3)c2)cn1` (stereo partly drawn) [Example 79], in experiment [1], the activation at 10 µM amounted to 297%. This compound yielded an inhibition in vivo at 10 mg/kg in the experiment with ICR mouse of 45%.

Consider `CC(O)c1cnc(NC(=O)[C@H](C[C@H]2CCC(=O)C2)c2ccc(S(=O)(=O)C3CC3)c(C3CC3)c2)cn1` (stereo partly drawn) [Example 83], for which, in experiment [1], the activation at 10 µM came to 345%. For the same compound, 10 mg/kg produced 51% inhibition in vivo with ICR mouse. In addition, the “Blood glucose lowering rate (%)” value in the experiment on SD rat was 17%.

Values taken from patent US8329707B2, “Substituted pyrazine compounds” (Astellas Pharma Inc., priority 2008, dated 2012).
